According to ChEMBL document CHEMBL1145629, “Design of (N)-methanocarba adenosine 5'-uronamides as species-independent A3 receptor-selective agonists” (Bioorg Med Chem Lett, 2008):

Assays:
[1] = target: T1, Adenosine receptor A2a (Homo sapiens, UniProt P29274); assay: Displacement of radioligand from human A2A adenosine receptor expressed in HEK293 cells at 10 uM; assay type: cell-based
[2] = target: Adenosine receptor A2a (Mus musculus) (UniProt Q60613); assay: Displacement of [3H]2-[p-(2-carboxyethyl)phenyl-ethylamino]-5'-N-ethylcarbox-amidoadenosine from mouse recombinant adenosine A2A receptor expressed in HEK293 at 100 uM; assay type: cell-based
Sequence of Adenosine receptor A2a (Mus musculus) (Q60613 whole entry): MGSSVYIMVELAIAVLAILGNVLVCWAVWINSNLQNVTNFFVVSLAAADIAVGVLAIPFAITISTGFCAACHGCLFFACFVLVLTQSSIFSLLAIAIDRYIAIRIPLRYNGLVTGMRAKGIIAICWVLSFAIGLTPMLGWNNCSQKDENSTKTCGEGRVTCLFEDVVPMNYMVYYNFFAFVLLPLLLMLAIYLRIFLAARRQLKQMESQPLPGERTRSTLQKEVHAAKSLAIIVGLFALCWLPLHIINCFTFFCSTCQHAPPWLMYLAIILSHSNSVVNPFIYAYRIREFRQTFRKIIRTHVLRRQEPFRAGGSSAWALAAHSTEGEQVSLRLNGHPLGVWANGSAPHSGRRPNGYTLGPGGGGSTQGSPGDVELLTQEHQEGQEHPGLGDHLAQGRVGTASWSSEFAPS

[3] = species on record: Mus musculus; assay: Selectivity for mouse adenosine A3 receptor over mouse adenosine A1 receptor
[4] = target: Adenosine receptors; A1 & A3 (Homo sapiens) (UniProt P30542+P0DMS8); assay: Selectivity for human adenosine A3 receptor over human adenosine A1 receptor
[5] = target: T2, Adenosine receptor A2b (Homo sapiens, UniProt P29275); assay: Activation of human adenosine A2B receptor
T2 sequence (P29275 whole entry): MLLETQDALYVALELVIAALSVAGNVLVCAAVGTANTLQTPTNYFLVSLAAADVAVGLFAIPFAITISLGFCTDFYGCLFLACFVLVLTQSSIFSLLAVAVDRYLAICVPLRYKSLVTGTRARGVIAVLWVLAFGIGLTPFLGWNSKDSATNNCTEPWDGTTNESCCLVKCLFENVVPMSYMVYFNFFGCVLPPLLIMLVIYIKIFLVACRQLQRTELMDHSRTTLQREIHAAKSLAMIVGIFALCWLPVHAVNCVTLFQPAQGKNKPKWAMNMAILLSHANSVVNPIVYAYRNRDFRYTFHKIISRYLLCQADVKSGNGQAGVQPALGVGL

[6] = target: T3, Adenosine receptor A1 (Mus musculus, UniProt Q60612); assay: Displacement of [125I]N6-(4-amino-3-iodobenzyl)adenosine-5'-N-methyl-uronamide from mouse recombinant adenosine A1 receptor expressed in HEK293 cells; assay type: cell-based
T3 sequence (Q60612 whole entry): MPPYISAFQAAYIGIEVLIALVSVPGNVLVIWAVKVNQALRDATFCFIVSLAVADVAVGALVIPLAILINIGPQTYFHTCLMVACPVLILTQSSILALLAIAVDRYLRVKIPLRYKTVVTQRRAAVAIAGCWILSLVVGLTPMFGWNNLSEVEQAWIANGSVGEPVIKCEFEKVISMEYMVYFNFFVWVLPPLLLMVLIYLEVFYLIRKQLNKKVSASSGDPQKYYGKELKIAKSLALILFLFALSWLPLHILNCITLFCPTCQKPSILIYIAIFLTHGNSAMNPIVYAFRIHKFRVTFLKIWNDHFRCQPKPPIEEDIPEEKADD

[7] = target: Adenosine receptor A2a (Mus musculus, UniProt Q60613); assay: Displacement of [3H]2-[p-(2-carboxyethyl)phenyl-ethylamino]-5'-N-ethylcarboxamidoadenosine from mouse recombinant adenosine A2A receptor expressed in HEK293 cells; assay type: cell-based
Sequence of Adenosine receptor A2a (Mus musculus, UniProt Q60613) (Q60613 whole entry): as the sequence (Q60613 whole entry) above

[8] = target: T4, Adenosine receptor A3 (Mus musculus, UniProt Q61618); assay: Displacement of [125I]N6-(-amino-3-iodobenzyl)adenosine-5'-N-methyl-uronamide from mouse recombinant adenosine A3 receptor expressed in HEK293 cells; assay type: cell-based
T4 sequence (Q61618 whole entry): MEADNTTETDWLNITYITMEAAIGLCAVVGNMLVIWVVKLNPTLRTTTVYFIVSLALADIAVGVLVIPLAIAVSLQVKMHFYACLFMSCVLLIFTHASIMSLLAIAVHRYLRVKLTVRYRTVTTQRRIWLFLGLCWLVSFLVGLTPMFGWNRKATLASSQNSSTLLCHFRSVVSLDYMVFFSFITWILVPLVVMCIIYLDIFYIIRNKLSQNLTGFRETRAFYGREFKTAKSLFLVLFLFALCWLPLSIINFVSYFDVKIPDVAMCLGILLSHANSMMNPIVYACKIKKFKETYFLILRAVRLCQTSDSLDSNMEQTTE

[9] = target: T1, Adenosine receptor A2a; assay: Displacement of radioligand from human adenosine A2A receptor expressed in HEK293 cells; assay type: cell-based
[10] = target: T5, Adenosine receptor A2b (Mus musculus, UniProt Q60614); assay: Activation of mouse adenosine A2B receptor
T5 sequence (Q60614 whole entry): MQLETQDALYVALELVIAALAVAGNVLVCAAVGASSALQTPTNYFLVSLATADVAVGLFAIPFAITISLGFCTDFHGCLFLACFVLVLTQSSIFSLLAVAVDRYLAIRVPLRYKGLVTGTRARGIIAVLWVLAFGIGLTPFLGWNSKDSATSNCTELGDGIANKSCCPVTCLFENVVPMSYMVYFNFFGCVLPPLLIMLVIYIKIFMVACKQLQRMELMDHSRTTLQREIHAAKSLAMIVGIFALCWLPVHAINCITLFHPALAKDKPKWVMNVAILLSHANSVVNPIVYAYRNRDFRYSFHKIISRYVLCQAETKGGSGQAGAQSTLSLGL

[11] = target: Adenosine receptor A2a (Rattus norvegicus, UniProt P30543); assay: Displacement of radioligand from rat adenosine A2A receptor
Sequence of Adenosine receptor A2a (Rattus norvegicus, UniProt P30543) (P30543 whole entry): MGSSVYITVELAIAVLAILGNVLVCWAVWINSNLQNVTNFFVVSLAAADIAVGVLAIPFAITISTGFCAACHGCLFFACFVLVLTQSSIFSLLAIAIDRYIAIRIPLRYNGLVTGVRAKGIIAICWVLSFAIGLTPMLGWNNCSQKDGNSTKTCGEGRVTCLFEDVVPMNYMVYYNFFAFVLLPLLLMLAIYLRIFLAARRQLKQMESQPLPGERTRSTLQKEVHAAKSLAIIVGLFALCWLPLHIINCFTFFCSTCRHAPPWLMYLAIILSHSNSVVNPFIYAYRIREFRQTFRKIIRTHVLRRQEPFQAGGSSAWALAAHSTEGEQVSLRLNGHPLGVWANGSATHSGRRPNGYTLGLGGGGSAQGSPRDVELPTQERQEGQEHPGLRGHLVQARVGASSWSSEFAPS

[12] = target: T6, Adenosine receptor A3 (Homo sapiens, UniProt P0DMS8); assay: Displacement of radioligand from human adenosine A3 receptor expressed in CHO cells; assay type: cell-based
T6 sequence (P0DMS8 whole entry): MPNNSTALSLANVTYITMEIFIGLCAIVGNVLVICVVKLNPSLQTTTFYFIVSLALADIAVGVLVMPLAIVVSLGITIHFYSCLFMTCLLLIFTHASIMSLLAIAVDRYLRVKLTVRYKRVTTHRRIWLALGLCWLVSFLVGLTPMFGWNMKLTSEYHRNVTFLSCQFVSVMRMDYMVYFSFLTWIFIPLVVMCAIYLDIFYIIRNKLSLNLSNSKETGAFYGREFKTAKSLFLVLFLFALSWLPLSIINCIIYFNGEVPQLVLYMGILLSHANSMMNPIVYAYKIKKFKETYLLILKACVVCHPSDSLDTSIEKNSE

[13] = target: T7, Adenosine receptor A1 (Homo sapiens, UniProt P30542); assay: Displacement of radioligand from human adenosine A1 receptor expressed in CHO cells; assay type: cell-based
T7 sequence (P30542 whole entry): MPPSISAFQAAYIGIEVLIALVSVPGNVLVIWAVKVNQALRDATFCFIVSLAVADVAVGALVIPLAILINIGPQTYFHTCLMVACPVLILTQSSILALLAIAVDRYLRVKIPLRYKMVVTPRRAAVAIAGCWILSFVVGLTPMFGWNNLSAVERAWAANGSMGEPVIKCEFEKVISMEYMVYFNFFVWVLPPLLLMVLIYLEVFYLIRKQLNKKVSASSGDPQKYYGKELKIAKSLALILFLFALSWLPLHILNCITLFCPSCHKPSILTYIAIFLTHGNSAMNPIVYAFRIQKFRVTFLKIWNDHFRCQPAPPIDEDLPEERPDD

T1 sequence (P29274 whole entry): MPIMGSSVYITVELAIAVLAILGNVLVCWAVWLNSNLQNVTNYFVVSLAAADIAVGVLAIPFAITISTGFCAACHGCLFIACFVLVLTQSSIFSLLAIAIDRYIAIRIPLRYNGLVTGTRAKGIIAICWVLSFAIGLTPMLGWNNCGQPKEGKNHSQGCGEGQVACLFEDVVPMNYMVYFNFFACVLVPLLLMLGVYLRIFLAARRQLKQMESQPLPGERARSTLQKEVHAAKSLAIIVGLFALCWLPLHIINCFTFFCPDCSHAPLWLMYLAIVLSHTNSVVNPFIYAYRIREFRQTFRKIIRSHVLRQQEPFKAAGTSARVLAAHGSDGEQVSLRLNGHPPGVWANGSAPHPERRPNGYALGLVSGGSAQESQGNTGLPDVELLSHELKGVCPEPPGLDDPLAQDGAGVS

Row | SMILES | inhibition [1] | inhibition [2] | Ratio Ki [3] | Ratio Ki [4] | Ki [6] | Ki [7] | Ki [8] | also measured
1 | CNC(=O)[C@@]12C[C@@H]1[C@@H](n1cnc3c(NCc4cccc(Cl)c4)nc(C#CCCCC(=O)O)nc31)[C@H](O)[C@@H]2O | 43% | 8% | – | – | – | – | – | –
2 | CNC(=O)C12C[C@@H]1[C@@H](n1cnc3c(NCc4cccc(Br)c4)nc(Cl)nc31)[C@H](O)[C@@H]2O (single isomer, unassigned) | – | – | 9.8 | 710 | 8.79 nM | 6390 nM | 0.9 nM | EC50 [5]: ≥ 10000 nM
3 | CNC(=O)C12C[C@@H]1[C@@H](n1cnc3c(NCc4cccc(Cl)c4)nc(I)nc31)[C@H](O)[C@@H]2O (single isomer, unassigned) | – | 40% | – | – | – | – | – | Ki [9]: > 10000 nM
4 | CNC(=O)[C@@]12C[C@@H]1[C@@H](n1cnc3c(NCc4cc(OC)ccc4OC)nc(I)nc31)[C@H](O)[C@@H]2O | 35% | 14% | – | – | – | – | – | –
5 | CNC(=O)[C@@]12C[C@@H]1[C@@H](n1cnc3c(NCc4cccc(I)c4)nc(Cl)nc31)[C@H](O)[C@@H]2O | – | – | – | – | 7.32 nM | 5350 nM | 0.8 nM | EC50 [5]: ≥ 10000 nM
6 | CNC(=O)C12C[C@@H]1[C@@H](n1cnc3c(NCC(c4ccccc4)c4ccccc4)nc(Cl)nc31)[C@H](O)[C@@H]2O (single isomer, unassigned) | – | – | 4.1 | 1900 | 6.83 nM | 1810 nM | 1.67 nM | EC50 [5]: ≥ 10000 nM
7 | CNC(=O)[C@@]12C[C@@H]1[C@@H](n1cnc3c(NCc4cccc(C#CCCCC(=O)O)c4)nc(Cl)nc31)[C@H](O)[C@@H]2O | 14% | 5% | – | – | – | – | – | –
8 | CNC(=O)[C@H]1O[C@@H](n2cnc3c(NCc4cccc(I)c4)nc(Cl)nc32)[C@H](O)[C@@H]1O [NAMODENOSON] | – | – | – | – | 35 nM | 10000 nM | – | EC50 [10]: ≥ 10000 nM
9 | CNC(=O)[C@@]12C[C@@H]1[C@@H](n1cnc3c(NC)nc(Cl)nc31)[C@H](O)[C@@H]2O | 6% | – | – | – | 55.3 nM | – | 49 nM | Ki [11]: > 10000 nM
10 | CNC(=O)C12C[C@@H]1[C@@H](n1cnc3c(NCc4cc(OC)ccc4OC)nc(Cl)nc31)[C@H](O)[C@@H]2O (single isomer, unassigned) | – | – | 17 | 1100 | 29 nM | 44700 nM | 1.72 nM | EC50 [5]: ≥ 10000 nM; Ki [9]: 10000 nM
11 | CNC(=O)C12C[C@@H]1[C@@H](n1cnc3c(NC4CC4c4ccccc4)nc(Cl)nc31)[C@H](O)[C@@H]2O (single isomer, unassigned) | – | – | – | – | – | 38200 nM | – | EC50 [5]: ≥ 10000 nM
12 | CNC(=O)C12C[C@@H]1[C@@H](n1cnc3c(NCc4cccc(Cl)c4)nc(SC)nc31)[C@H](O)[C@@H]2O (single isomer, unassigned) | – | 32% | 83 | 410 | 98.9 nM | – | 1.19 nM | Ki [9]: 10000 nM
13 | CNC(=O)[C@@]12C[C@@H]1[C@@H](n1cnc3c(NCc4cccc(Cl)c4)nc(Cl)nc31)[C@H](O)[C@@H]2O | – | – | – | – | 15.3 nM | 10400 nM | 1.49 nM | EC50 [5]: ≥ 10000 nM
14 | C#Cc1nc(NCc2cccc(Cl)c2)c2ncn([C@H]3[C@H](O)[C@H](O)[C@]4(C(=O)NC)C[C@H]34)c2n1 | 48% | 41% | – | – | – | – | – | –
15 | CNC(=O)[C@@]12C[C@@H]1[C@@H](n1cnc3c(NCc4cccc(C#CCCCC(=O)NCCN)c4)nc(Cl)nc31)[C@H](O)[C@@H]2O | 58% | 39% | 13 | 52 | 151 nM | – | 11.9 nM | Ki [12]: 5.21 nM; Ki [13]: 271 nM
16 | CNC(=O)[C@H]1O[C@@H](n2cnc3c(NCc4cccc(I)c4)ncnc32)[C@H](O)[C@@H]1O [IB-MECA] | – | – | – | – | 5.9 nM | 1000 nM | 0.087 nM | EC50 [10]: ≥ 10000 nM
17 | CNC(=O)[C@@]12C[C@@H]1[C@@H](n1cnc3c(NOC)nc(Cl)nc31)[C@H](O)[C@@H]2O | 2% | 2% | 1.3 | 1.8 | 1160 nM | – | 877 nM | Ki [12]: 149 nM; Ki [13]: 265 nM
18 | CNC(=O)[C@@]12C[C@@H]1[C@@H](n1cnc3c(NCc4cccc(C#CCCCC(=O)NCCNC(C)=O)c4)nc(Cl)nc31)[C@H](O)[C@@H]2O | 80% | 68% | – | – | – | – | – | –
19 | CNC(=O)[C@@]12C[C@@H]1[C@@H](n1cnc3c(NCc4cccc(Cl)c4)nc(C#CCCCC(=O)OC)nc31)[C@H](O)[C@@H]2O | 49% | 50% | – | – | 1340 nM | – | 4.65 nM | Ki [13]: 482 nM
20 | CNC(=O)C12C[C@@H]1[C@@H](n1cnc3c(NCc4cccc(C#CCO)c4)nc(Cl)nc31)[C@H](O)[C@@H]2O (single isomer, unassigned) | 56% | 11% | – | – | – | – | – | –
21 | CNC(=O)[C@@]12C[C@@H]1[C@@H](n1cnc3c(NCc4cccc(Cl)c4)nc(C#CCCCC(=O)NCCN)nc31)[C@H](O)[C@@H]2O | 81% | 31% | 64 | 209 | 546 nM | – | 8.6 nM | Ki [12]: 2.17 nM; Ki [13]: 454 nM
22 | CNC(=O)[C@@]12C[C@@H]1[C@@H](n1cnc3c(NCc4cccc(Cl)c4)nc(C#C[Si](C)(C)C)nc31)[C@H](O)[C@@H]2O | 52% | 20% | 35.6 | 160 | 159 nM | – | 4.46 nM | Ki [12]: 0.98 nM; Ki [13]: 160 nM
23 | CCCC#Cc1nc(NCc2cccc(Cl)c2)c2ncn([C@H]3[C@H](O)[C@H](O)[C@]4(C(=O)NC)C[C@H]34)c2n1 | 80% | 42% | – | – | – | – | – | –
